Results as given in PubChem BioAssay (NCI).
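1) Cells in 96-well plates. 2) Compound, 48 h, 5 concentrations. 3) Linear interpolation between surrounding doses. 4) Unreached endpoint = highest concentration. At the GI50, growth is halved. TGI denotes the concentration required for complete inhibition of growth.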

Tests used:
Test in all cases: NCI anticancer screen, dose series, 48 h
RXF 393 renal = test system: RXF 393 renal
MDA-MB-435 = test system: MDA-MB-435
CCRF-CEM leukemia = test system: CCRF-CEM leukemia
SK-OV-3 ovarian = test system: SK-OV-3 ovarian
MOLT-4 leukemia = test system: MOLT-4 leukemia
MCF7 breast = test system: MCF7 breast
T-47D breast = test system: T-47D breast
SNB-19 CNS = test system: SNB-19 CNS
TK-10 renal = test system: TK-10 renal
NCI-H23 lung = test system: NCI-H23 lung
OVCAR-8 ovarian = test system: OVCAR-8 ovarian
OVCAR-4 ovarian = test system: OVCAR-4 ovarian
COLO 205 colon = test system: COLO 205 colon
M14 melanoma = test system: M14 melanoma
UACC-257 melanoma = test system: UACC-257 melanoma
HCT-15 colon = test system: HCT-15 colon
SK-MEL-2 melanoma = test system: SK-MEL-2 melanoma
SF-539 CNS = test system: SF-539 CNS
SF-295 CNS = test system: SF-295 CNS
SW-620 colon = test system: SW-620 colon
DU-145 prostate = test system: DU-145 prostate
HT29 colon = test system: HT29 colon
KM12 colon = test system: KM12 colon
HL-60(TB) leukemia = test system: HL-60(TB) leukemia
HCT-116 colon = test system: HCT-116 colon
PC-3 prostate = test system: PC-3 prostate
OVCAR-3 ovarian = test system: OVCAR-3 ovarian
HOP-62 NSCLC = test system: HOP-62 NSCLC
NCI/ADR-RES ovarian = test system: NCI/ADR-RES ovarian
SNB-75 CNS = test system: SNB-75 CNS
HS 578T breast = test system: HS 578T breast
SK-MEL-28 melanoma = test system: SK-MEL-28 melanoma
786-0 renal = test system: 786-0 renal
HOP-92 NSCLC = test system: HOP-92 NSCLC
CAKI-1 renal = test system: CAKI-1 renal
NCI-H460 lung = test system: NCI-H460 lung
MALME-3M melanoma = test system: MALME-3M melanoma
U251 CNS = test system: U251 CNS
LOX IMVI melanoma = test system: LOX IMVI melanoma
SF-268 CNS = test system: SF-268 CNS
SK-MEL-5 melanoma = test system: SK-MEL-5 melanoma
A549 NSCLC = test system: A549 NSCLC
K-562 leukemia = test system: K-562 leukemia
EKVX NSCLC = test system: EKVX NSCLC
UO-31 renal = test system: UO-31 renal
SR leukemia = test system: SR leukemia
MDA-MB-231 breast = test system: MDA-MB-231 breast
BT-549 breast = test system: BT-549 breast
ACHN renal = test system: ACHN renal
IGROV1 ovarian = test system: IGROV1 ovarian
NCI-H522 lung = test system: NCI-H522 lung
OVCAR-5 ovarian = test system: OVCAR-5 ovarian
A498 renal = test system: A498 renal
RPMI-8226 leukemia = test system: RPMI-8226 leukemia
SN12C renal = test system: SN12C renal
NCI-H226 lung = test system: NCI-H226 lung
HCC-2998 colon = test system: HCC-2998 colon
UACC-62 melanoma = test system: UACC-62 melanoma

## N#CC1C(=O)NC(=O)C(C#N)C1c1ccc(Cl)c(Cl)c1 (centres undefined)
RXF 393 renal
  TGI: 50.5 µM
MDA-MB-435
  TGI: 49 µM
CCRF-CEM leukemia
  TGI: 31.9 µM
SK-OV-3 ovarian
  TGI: > 100 µM
MOLT-4 leukemia
  TGI: 62 µM
MCF7 breast
  TGI: > 100 µM
T-47D breast
  TGI: > 100 µM
SNB-19 CNS
  TGI: > 100 µM
TK-10 renal
  TGI: 98.4 µM
NCI-H23 lung
  TGI: 49.2 µM
OVCAR-8 ovarian
  TGI: > 100 µM
OVCAR-4 ovarian
  TGI: > 100 µM
COLO 205 colon
  TGI: > 100 µM
M14 melanoma
  TGI: 56 µM
UACC-257 melanoma
  TGI: 86.7 µM
HCT-15 colon
  TGI: 46.1 µM
SK-MEL-2 melanoma
  TGI: > 100 µM
SF-539 CNS
  TGI: 42.6 µM
SF-295 CNS
  TGI: > 100 µM
SW-620 colon
  TGI: 36.8 µM
DU-145 prostate
  TGI: > 100 µM
HT29 colon
  TGI: 33 µM
KM12 colon
  TGI: > 100 µM
HL-60(TB) leukemia
  TGI: > 100 µM
HCT-116 colon
  TGI: 29.7 µM
PC-3 prostate
  TGI: > 100 µM
OVCAR-3 ovarian
  TGI: 67 µM
HOP-62 NSCLC
  TGI: 43.4 µM
NCI/ADR-RES ovarian
  TGI: 83.1 µM
SNB-75 CNS
  TGI: 74.2 µM
HS 578T breast
  TGI: 65.6 µM
SK-MEL-28 melanoma
  TGI: > 100 µM
786-0 renal
  TGI: 41.7 µM
HOP-92 NSCLC
  TGI: > 100 µM
CAKI-1 renal
  TGI: 71.6 µM
NCI-H460 lung
  TGI: > 100 µM
MALME-3M melanoma
  TGI: > 100 µM
U251 CNS
  TGI: 51.5 µM
LOX IMVI melanoma
  TGI: 34.4 µM
SF-268 CNS
  TGI: > 100 µM
SK-MEL-5 melanoma
  TGI: 48.3 µM
A549 NSCLC
  TGI: > 100 µM
K-562 leukemia
  TGI: 85.8 µM
EKVX NSCLC
  TGI: > 100 µM
UO-31 renal
  TGI: 33.2 µM
SR leukemia
  TGI: 41.6 µM
MDA-MB-231 breast
  TGI: > 100 µM
BT-549 breast
  TGI: > 100 µM
ACHN renal
  TGI: 50.9 µM
IGROV1 ovarian
  TGI: 47.3 µM
NCI-H522 lung
  TGI: 38 µM
OVCAR-5 ovarian
  TGI: 68.6 µM

## Cc1cc2nc3c(C#N)c4c(c(Nc5ccc(Cl)cc5)n3c2cc1C)CCC4
RXF 393 renal
  TGI: 33.8 µM
MDA-MB-435
  TGI: > 100 µM
SK-OV-3 ovarian
  TGI: > 100 µM
MOLT-4 leukemia
  TGI: > 100 µM
T-47D breast
  TGI: 86.3 µM
TK-10 renal
  TGI: 40.9 µM
NCI-H23 lung
  TGI: 57.2 µM
OVCAR-8 ovarian
  TGI: 35.5 µM
OVCAR-4 ovarian
  TGI: > 100 µM
COLO 205 colon
  TGI: 59.1 µM
UACC-257 melanoma
  TGI: 76.6 µM
HCT-15 colon
  TGI: 36.7 µM
SF-539 CNS
  TGI: 48.7 µM
SF-295 CNS
  TGI: > 100 µM
SW-620 colon
  TGI: 34 µM
DU-145 prostate
  TGI: 75.1 µM
HT29 colon
  TGI: 32 µM
KM12 colon
  TGI: > 100 µM
HCT-116 colon
  TGI: 30.4 µM
OVCAR-3 ovarian
  TGI: 35.4 µM
HOP-62 NSCLC
  TGI: > 100 µM
A498 renal
  TGI: > 100 µM
NCI/ADR-RES ovarian
  TGI: 48.1 µM
SNB-75 CNS
  TGI: > 100 µM
SK-MEL-28 melanoma
  TGI: 47.2 µM
786-0 renal
  TGI: 29.3 µM
HOP-92 NSCLC
  TGI: 47.8 µM
CAKI-1 renal
  TGI: 41.4 µM
MALME-3M melanoma
  TGI: 55 µM
U251 CNS
  TGI: 32.9 µM
LOX IMVI melanoma
  TGI: 32.8 µM
SF-268 CNS
  TGI: 33.6 µM
RPMI-8226 leukemia
  TGI: 32.7 µM
SK-MEL-5 melanoma
  TGI: 32.9 µM
EKVX NSCLC
  TGI: > 100 µM
MDA-MB-231 breast
  TGI: 42.8 µM
SN12C renal
  TGI: 34.4 µM
BT-549 breast
  TGI: 44.8 µM
ACHN renal
  TGI: 43.3 µM
NCI-H226 lung
  TGI: 64.7 µM
NCI-H522 lung
  TGI: 26.5 µM
OVCAR-5 ovarian
  TGI: 36.3 µM

## CCN1C(=O)N(CC)C2C1NN=c1s/c(=C\c3cnc(C)n3C)c(=O)n12 (centres undefined)
RXF 393 renal
  GI50: 1.2 µM
  TGI: 5.38 µM
MDA-MB-435
  GI50: 0.321 µM
  TGI: 1.36 µM
CCRF-CEM leukemia
  GI50: 2.75 µM
  TGI: > 100 µM
SK-OV-3 ovarian
  GI50: 2.74 µM
  TGI: > 100 µM
MOLT-4 leukemia
  GI50: 3.24 µM
  TGI: > 100 µM
MCF7 breast
  GI50: 0.676 µM
  TGI: > 100 µM
T-47D breast
  GI50: 4.81 µM
  TGI: > 100 µM
SNB-19 CNS
  GI50: 3.94 µM
  TGI: > 100 µM
HCC-2998 colon
  GI50: 2.65 µM
  TGI: 14.5 µM
TK-10 renal
  GI50: 7.19 µM
  TGI: > 100 µM
NCI-H23 lung
  GI50: 3.17 µM
  TGI: > 100 µM
OVCAR-8 ovarian
  GI50: 3.41 µM
  TGI: > 100 µM
OVCAR-4 ovarian
  GI50: 3.76 µM
  TGI: > 100 µM
COLO 205 colon
  GI50: 1.63 µM
  TGI: 4.88 µM
UACC-257 melanoma
  GI50: 4.69 µM
  TGI: > 100 µM
HCT-15 colon
  GI50: 3.42 µM
  TGI: > 100 µM
SK-MEL-2 melanoma
  GI50: 1.85 µM
  TGI: 11.3 µM
SF-539 CNS
  GI50: 1.78 µM
  TGI: 5.19 µM
SF-295 CNS
  GI50: 1.21 µM
  TGI: > 100 µM
SW-620 colon
  GI50: 2.01 µM
  TGI: > 100 µM
DU-145 prostate
  GI50: 2.51 µM
  TGI: > 100 µM
KM12 colon
  GI50: 1.22 µM
  TGI: > 100 µM
HL-60(TB) leukemia
  GI50: 1.61 µM
  TGI: 4.03 µM
HCT-116 colon
  GI50: 2.43 µM
  TGI: > 100 µM
PC-3 prostate
  GI50: 2.07 µM
  TGI: > 100 µM
OVCAR-3 ovarian
  GI50: 0.593 µM
  TGI: 3.41 µM
HOP-62 NSCLC
  GI50: 2.59 µM
  TGI: > 100 µM
A498 renal
  GI50: 0.946 µM
  TGI: 5.43 µM
NCI/ADR-RES ovarian
  GI50: 10.3 µM
  TGI: > 100 µM
SNB-75 CNS
  GI50: 0.324 µM
  TGI: 3.44 µM
SK-MEL-28 melanoma
  GI50: 5.2 µM
  TGI: > 100 µM
786-0 renal
  GI50: 6.54 µM
  TGI: > 100 µM
UACC-62 melanoma
  GI50: 1.14 µM
  TGI: 88 µM
HOP-92 NSCLC
  GI50: 4.85 µM
  TGI: 96.1 µM
CAKI-1 renal
  GI50: 0.7 µM
  TGI: > 100 µM
NCI-H460 lung
  GI50: 2.67 µM
  TGI: > 100 µM
MALME-3M melanoma
  GI50: 2.96 µM
  TGI: > 100 µM
U251 CNS
  GI50: 2.83 µM
  TGI: > 100 µM
LOX IMVI melanoma
  GI50: 4.43 µM
  TGI: > 100 µM
SF-268 CNS
  GI50: 4.1 µM
  TGI: > 100 µM
RPMI-8226 leukemia
  GI50: 3.47 µM
  TGI: > 100 µM
SK-MEL-5 melanoma
  GI50: 1.2 µM
  TGI: 11.1 µM
A549 NSCLC
  GI50: 3.99 µM
  TGI: > 100 µM
K-562 leukemia
  GI50: 0.61 µM
  TGI: > 100 µM
EKVX NSCLC
  GI50: 3.65 µM
  TGI: > 100 µM
UO-31 renal
  GI50: 5 µM
  TGI: > 100 µM
SR leukemia
  GI50: 0.346 µM
  TGI: 19.1 µM
MDA-MB-231 breast
  GI50: 2.5 µM
  TGI: 31.9 µM
SN12C renal
  GI50: 4.64 µM
  TGI: > 100 µM
BT-549 breast
  GI50: 3.66 µM
  TGI: 90.9 µM
ACHN renal
  GI50: 5.94 µM
  TGI: > 100 µM
IGROV1 ovarian
  GI50: 4.37 µM
  TGI: > 100 µM
NCI-H226 lung
  GI50: > 100 µM
  TGI: > 100 µM
NCI-H522 lung
  GI50: 1.33 µM
  TGI: 4.34 µM
OVCAR-5 ovarian
  GI50: 3.68 µM
  TGI: > 100 µM
